Data reported in PMC10940743, “Discovery of a Novel Cellobiose Dehydrogenase from Cellulomonas palmilytica EW123 and Its Sugar Acids Production” (Journal of Microbiology and Biotechnology, 2023).

System: T1, CpCDH (recombinant cellobiose dehydrogenase)
T1 construct: gene cdh; signal peptide (30 residues) excluded; CYT + linker + DH domains, no CBM1; pET-28a NdeI/NotI, C-terminal His tag avoided by stop codon (N-terminal His tag implied, HisTrap); E. coli BL21(DE3); 923 residues printed; forward primer starts MVEPRH; printed 2,772 bp PCR product fits poorly with residues 31-923
Experiment: spectrophotometric DCPIP reduction at […] nm, Michaelis-Menten
Format: biochemical, Cellulomonas palmilytica
Conditions: DCPIP as electron acceptor; 50 mM sodium acetate pH 5.0; 25°C

Row | Km | Compound
1 | 2.24 mM | OC[C@H]1O[C@@H](O[C@H]2[C@H](O)[C@@H](O)C(O)O[C@@H]2CO)[C@H](O)[C@@H](O)[C@@H]1O (some centres unmarked) [Cellobiose]
2 | 6.93 mM | OC[C@H]1O[C@@H](O[C@H]2[C@H](O)[C@@H](O)C(O)O[C@@H]2CO)[C@H](O)[C@@H](O)[C@H]1O (some centres unmarked) [Lactose]
